Laboratory results as given in PMC6458983 (Cancer Chemotherapy and Pharmacology, 2019).
Like-named read-outs stand apart in the source and are kept apart here. Marks after values point to notes of the source that are not given here.

Key:
[1] = test system: Japanese patients with NSCLC; test: Multivariate logistic regression of ILD with gefitinib exposure and other risk factors; type: in vivo; settings: for OR estimate (95% CI) for acute ILD: Age (≥55 vs <55 years): gefitinib-treated patients
Method: Patients with and without ILD, in whom pharmacokinetic measurements were available, were included in this analysis. […] A multivariate logistic regression model was used in this analysis; the analysis was performed using SAS version 9.3. […] In addition, the interaction of smoking history and normal lung coverage, and the interaction of the severity of pre-existing ILD and normal lung coverage were also studied. In addition, pharmacokinetic exposure parameters were divided into four quartiles (see “Results”) and investigated as risk factors. For association with ILD risk, the mid-1, mid-2, and high-exposure groups were compared with the low-exposure group.

[2] = Population pharmacokinetic analysis of gefitinib plasma concentrations (NONMEM, one-compartment model); type: in vivo, Japanese patients with NSCLC
Method: Six blood samples were taken from each patient at 1–3, 3–8, and 24 h after first treatment dosing (Day 1) and at steady state (Days 10–15). In addition, blood samples were taken from each patient with ILD, if possible, when ILD developed. […] In total, data for 1891 plasma concentrations taken from 336 patients were used for population pharmacokinetic modeling.
When estimating the exposure at first dosing and at steady state, time-dependent pharmacokinetics were not assumed. Thus, both exposures at first dosing and steady state can be theoretically derived if at least one plasma concentration at either first dosing or steady state is available. Individual exposures were predicted based on patients’ dosing history, assuming steady state at 144 h after the first dosing. […] Serum concentration of AGP were likewise determined at first dosing and at steady state.
The population pharmacokinetic analysis was performed using the non-linear mixed-effect modeling (NONMEM) program version V level 1.1 with the PREDPP library and the NM-TRAN pre-processor (GloboMax LLC, Hanover, MD, USA). Full details of the population pharmacokinetic model development and analysis are described in the Online Resource.
The population pharmacokinetic analysis was performed using the NONMEM program version V level 1.1 with the PREDPP library and the NM-TRAN pre-processor (GloboMax LLC, Hanover, MD).
Following preliminary modeling to build a base model, log-transformed plasma concentrations were used for the analysis, and a one-compartment model after first-order absorption with lag-time was selected as the structural model. The first-order method was adopted as an approximation in integral of marginal likelihood. The inter-individual variability on pharmacokinetic parameters was described using an exponential error model, and the intra-individual variability on log-transformed plasma concentration was described using an additive error model.
The covariate model was developed based on the forward addition method and the backward deletion method. Continuous covariates such as body weight, age, sex, α1-acid glycoprotein (AGP), serum albumin, total protein, aspartate aminotransferase, alanine aminotransferase, alkaline phosphatase, total bilirubin, and creatinine clearance were tested using a power model centered on the mean value.
Categorical covariates included were age group (<65 years or ≥65 years), concomitant use of cytochrome P450 3A4 (CYP3A4) inducers, concomitant use of CYP3A4 inhibitors, and concomitant use of proton pump inhibitors and/or H2 antagonists. In addition, interstitial lung disease (ILD) status (i.e. “patients with ILD” vs “patients without ILD”) and ILD period (i.e. “at times other than ILD development” vs “at the time of ILD development”) were tested using a productive multiplicative model with the discrete variable (0 or 1).
χ^2 tests with one degree of freedom based on the objective function value (OFV) in NONMEM, which corresponds to -2-fold of log-likelihood, were used for developing the covariate model, and the adopted statistically significant levels were p=0.05 (ΔOFV=3.84) and p=0.001 (ΔOFV=10.83) when a covariate was included and excluded from the pharmacokinetic model, respectively.
Goodness-of-fit plots were used for diagnosis of the final model. The robustness of the final model was evaluated by a randomized non-stratified bootstrap technique with 200 resampling datasets, and model predictability was examined by visual predictive check.

[3] = test system: Japanese patients with NSCLC
Method: Area under the plasma concentration–time curve from 0 to 24 h (AUC0–24) and maximum plasma concentrations (Cmax) were calculated using empirical Bayesian estimates of pharmacokinetic parameters in the final population pharmacokinetic model. AUC0–24 and Cmax were chosen as exposure metrics. The incidence of ILD was summarized for four exposure levels, defined using exposure quartiles after a single dose and at steady state, respectively.
After a single dose, predicted pharmacokinetic values were available for all 51 patients with ILD and all 285 patients without ILD. […] Each pharmacokinetic parameter was quartiled separately.

[4] = Analysis 3 (PK parameter Cmax, single dose)
[5] = Analysis 3, gefitinib exposure after a single dose
[6] = Analysis 4 (PK parameter Cmax,ss)
[7] = Analysis 4, gefitinib exposure at steady state
[8] = after a single dose, third-quartile cut-off of predicted exposure

OR estimate (95% CI) for acute ILD: Normal lung coverage (10%–50% vs 60%–100%) [1, 4]: 3.56 (0.64–19.85) | OR estimate (95% CI) for acute ILD: Pre-existing IP (yes vs no) [1, 4]: 3.56 (0.33–38.74) | OR estimate (95% CI) for acute ILD: WHO performance status 1 vs 0 [1, 4]: 0.62 (0.21–1.8) | OR estimate (95% CI) for acute ILD: WHO performance status 2–3 vs 0 [1, 4]: 1.89 (0.52–6.85) | OR estimate (95% CI) for acute ILD: Age (≥55 vs <55 years) [1, 4]: 2.13 (0.56–8.04) | OR estimate (95% CI) for acute ILD: Cmax Quartile 2 vs Quartile 1 [1, 5]: 0.51 (0.14–1.8) | OR estimate (95% CI) for acute ILD: Cmax Quartile 3 vs Quartile 1 [1, 5]: 0.5 (0.14–1.72) | OR estimate (95% CI) for acute ILD: Cmax Quartile 4 vs Quartile 1 [1, 5]: 3.03 (1–9.17) | OR estimate (95% CI) for acute ILD: Duration of NSCLC ≥1 vs <0.5 years [1, 6]: 0.59 (0.2–1.75) | OR estimate (95% CI) for acute ILD: Interaction of pre-existing IP and normal lung coverage [1, 6]: 0.18 (0.01–4.98) | OR estimate (95% CI) for acute ILD: Interaction of smoking history and normal lung coverage [1, 6]: 0.17 (0.02–1.89) | OR estimate (95% CI) for acute ILD: Pre-existing IP (yes vs no) [1, 6]: 5.21 (0.39–70.35) | OR estimate (95% CI) for acute ILD: WHO performance status 1 vs 0 [1, 6]: 0.57 (0.19–1.68) | OR estimate (95% CI) for acute ILD: WHO performance status 2–3 vs 0 [1, 6]: 1.34 (0.33–5.39) | OR estimate (95% CI) for acute ILD: Age (≥55 vs <55 years) [1, 6]: 1.69 (0.4–7.17) | OR estimate (95% CI) for acute ILD: Normal lung coverage (10%–50% vs 60%–100%) ([1]; Analysis 4 (PK parameter Cmax,ss), p<0.05): 9.4 (1.11–79.48)* | OR estimate (95% CI) for acute ILD: Cmax,ss Quartile 2 vs Quartile 1 [1, 7]: 0.69 (0.16–3.02) | OR estimate (95% CI) for acute ILD: Cmax,ss Quartile 3 vs Quartile 1 [1, 7]: 1.72 (0.47–6.27) | OR estimate (95% CI) for acute ILD: Cmax,ss Quartile 4 vs Quartile 1 [1, 7]: 1.07 (0.27–4.29) | decrease of CL/F ([2]; at the time of ILD development, population pharmacokinetic analysis): 25.7% | θ3 ([2]; base in CL/F equation (AGE ≥ 65 term, CL/F declined in elderly)): 0.759 | θ6 ([2]; base in CL/F equation (PERI, at the time of ILD diagnosis)): 0.743 | θ1 ([2]; typical value term of the CL/F equation (equation is drawing C00001), population estimate): 28.6 | θ7 ([2]; typical value term of the V/F equation (equation is drawing C00002), population estimate): 1540 | Proportion of patients with ILD, by AUC quartile ([3]; after a single dose, AUC0–24 Quartile 1): 11.9% | Proportion of patients with ILD, by AUC quartile ([3]; after a single dose, AUC0–24 Quartile 2): 8.3% | Proportion of patients with ILD, by AUC quartile ([3]; after a single dose, AUC0–24 Quartile 3): 8.3% | Proportion of patients with ILD, by AUC quartile ([3]; after a single dose, AUC0–24 Quartile 4): 32.1% | Proportion of patients with ILD, by Cmax quartile ([3]; after a single dose, Cmax Quartile 1): 11.9% | Proportion of patients with ILD, by Cmax quartile ([3]; after a single dose, Cmax Quartile 2): 8.3% | Proportion of patients with ILD, by Cmax quartile ([3]; after a single dose, Cmax Quartile 3): 9.5% | Proportion of patients with ILD, by Cmax quartile ([3]; after a single dose, Cmax Quartile 4): 31.0% | AUC0–24 lower than or equal to the third quartile [3, 8]: ≤ 3855 ng·h/mL | Cmax lower than or equal to the third quartile [3, 8]: ≤ 207 ng/mL | Proportion of patients with ILD, by AUC quartile ([3]; at steady state, AUC0–24,ss Quartile 1): 5.1% | Proportion of patients with ILD, by AUC quartile ([3]; at steady state, AUC0–24,ss Quartile 2): 7.8% | Proportion of patients with ILD, by AUC quartile ([3]; at steady state, AUC0–24,ss Quartile 3): 15.4% | Proportion of patients with ILD, by AUC quartile ([3]; at steady state, AUC0–24,ss Quartile 4): 14.3% | Proportion of patients with ILD, by Cmax quartile ([3]; at steady state, Cmax,ss Quartile 1): 6.4% | Proportion of patients with ILD, by Cmax quartile ([3]; at steady state, Cmax,ss Quartile 2): 6.5% | Proportion of patients with ILD, by Cmax quartile ([3]; at steady state, Cmax,ss Quartile 3): 17.9% | Proportion of patients with ILD, by Cmax quartile ([3]; at steady state, Cmax,ss Quartile 4): 11.7%
Compound: COc1cc2ncnc(Nc3ccc(F)c(Cl)c3)c2cc1OCCCN1CCOCC1 [gefitinib]
θ5 ([2]; exponent in CL/F equation (body weight term)): 0.503
